Results as given in BigSolDB 2.1.

CC(=O)OC(c1ccccc1)C(Cl)(Cl)Cl (stereo unspecified)
solubility (mole fraction) (in acetic acid, 288.15 K): 0.0201 | solubility (mole fraction) (in acetic acid, 293.15 K): 0.0271 | solubility (mole fraction) (in acetic acid, 298.15 K): 0.0379 | solubility (mole fraction) (in acetic acid, 303.15 K): 0.0482 | solubility (mole fraction) (in acetic acid, 308.15 K): 0.0605 | solubility (mole fraction) (in acetic acid, 313.15 K): 0.0767 | solubility (mole fraction) (in acetic acid, 318.15 K): 0.1 | solubility (mole fraction) (in acetic acid, 323.15 K): 0.127 | solubility (mole fraction) (in acetic acid, 328.15 K): 0.167 | solubility (mole fraction) (in acetone, 288.15 K): 0.0931 | solubility (mole fraction) (in acetone, 293.15 K): 0.111 | solubility (mole fraction) (in acetone, 298.15 K): 0.133 | solubility (mole fraction) (in acetone, 303.15 K): 0.158 | solubility (mole fraction) (in acetone, 308.15 K): 0.193 | solubility (mole fraction) (in acetone, 313.15 K): 0.232 | solubility (mole fraction) (in acetone, 318.15 K): 0.273 | solubility (mole fraction) (in acetone, 323.15 K): 0.32 | solubility (mole fraction) (in acetone, 328.15 K): 0.377 | solubility (mole fraction) (in acetonitrile, 288.15 K): 0.036 | solubility (mole fraction) (in acetonitrile, 293.15 K): 0.0408 | solubility (mole fraction) (in acetonitrile, 298.15 K): 0.0579 | solubility (mole fraction) (in acetonitrile, 303.15 K): 0.0719 | solubility (mole fraction) (in acetonitrile, 308.15 K): 0.0989 | solubility (mole fraction) (in acetonitrile, 313.15 K): 0.13 | solubility (mole fraction) (in acetonitrile, 318.15 K): 0.168 | solubility (mole fraction) (in acetonitrile, 323.15 K): 0.218 | solubility (mole fraction) (in acetonitrile, 328.15 K): 0.286 | solubility (mole fraction) (in ethanol, 288.15 K): 0.00865 | solubility (mole fraction) (in ethanol, 293.15 K): 0.0108 | solubility (mole fraction) (in ethanol, 298.15 K): 0.0134 | solubility (mole fraction) (in ethanol, 303.15 K): 0.0171 | solubility (mole fraction) (in ethanol, 308.15 K): 0.0217 | solubility (mole fraction) (in ethanol, 313.15 K): 0.029 | solubility (mole fraction) (in ethanol, 318.15 K): 0.0406 | solubility (mole fraction) (in ethanol, 323.15 K): 0.0555 | solubility (mole fraction) (in ethanol, 328.15 K): 0.0735 | solubility (mole fraction) (in ethyl acetate, 288.15 K): 0.117 | solubility (mole fraction) (in ethyl acetate, 293.15 K): 0.137 | solubility (mole fraction) (in ethyl acetate, 298.15 K): 0.159 | solubility (mole fraction) (in ethyl acetate, 303.15 K): 0.19 | solubility (mole fraction) (in ethyl acetate, 308.15 K): 0.218 | solubility (mole fraction) (in ethyl acetate, 313.15 K): 0.251 | solubility (mole fraction) (in ethyl acetate, 318.15 K): 0.287 | solubility (mole fraction) (in ethyl acetate, 323.15 K): 0.333 | solubility (mole fraction) (in ethyl acetate, 328.15 K): 0.38 | solubility (mole fraction) (in ethyl formate, 288.15 K): 0.0868 | solubility (mole fraction) (in ethyl formate, 293.15 K): 0.105 | solubility (mole fraction) (in ethyl formate, 298.15 K): 0.132 | solubility (mole fraction) (in ethyl formate, 303.15 K): 0.165 | solubility (mole fraction) (in ethyl formate, 308.15 K): 0.198 | solubility (mole fraction) (in ethyl formate, 313.15 K): 0.236 | solubility (mole fraction) (in ethyl formate, 318.15 K): 0.274 | solubility (mole fraction) (in ethyl formate, 323.15 K): 0.314 | solubility (mole fraction) (in ethyl formate, 328.15 K): 0.363 | solubility (mole fraction) (in isopropanol, 288.15 K): 0.00712 | solubility (mole fraction) (in isopropanol, 293.15 K): 0.00929 | solubility (mole fraction) (in isopropanol, 298.15 K): 0.0129 | solubility (mole fraction) (in isopropanol, 303.15 K): 0.0169 | solubility (mole fraction) (in isopropanol, 308.15 K): 0.0211 | solubility (mole fraction) (in isopropanol, 313.15 K): 0.0279 | solubility (mole fraction) (in isopropanol, 318.15 K): 0.0382 | solubility (mole fraction) (in isopropanol, 323.15 K): 0.0538 | solubility (mole fraction) (in isopropanol, 328.15 K): 0.0742 | solubility (mole fraction) (in methanol, 288.15 K): 0.00659 | solubility (mole fraction) (in methanol, 293.15 K): 0.00757 | solubility (mole fraction) (in methanol, 298.15 K): 0.00931 | solubility (mole fraction) (in methanol, 303.15 K): 0.0121 | solubility (mole fraction) (in methanol, 308.15 K): 0.0153 | solubility (mole fraction) (in methanol, 313.15 K): 0.02 | solubility (mole fraction) (in methanol, 318.15 K): 0.0264 | solubility (mole fraction) (in methanol, 323.15 K): 0.0342 | solubility (mole fraction) (in methanol, 328.15 K): 0.0447 | solubility (mole fraction) (in n-propanol, 288.15 K): 0.0105 | solubility (mole fraction) (in n-propanol, 293.15 K): 0.0132 | solubility (mole fraction) (in n-propanol, 298.15 K): 0.0164 | solubility (mole fraction) (in n-propanol, 303.15 K): 0.0216 | solubility (mole fraction) (in n-propanol, 308.15 K): 0.0287 | solubility (mole fraction) (in n-propanol, 313.15 K): 0.0375 | solubility (mole fraction) (in n-propanol, 318.15 K): 0.0496 | solubility (mole fraction) (in n-propanol, 323.15 K): 0.0667 | solubility (mole fraction) (in n-propanol, 328.15 K): 0.0905
